Data as given in patent US20080293683A1, “Hormone Replacement Therapy” (University of Kansas Medical Center, priority 2007, published 2008).
Like-named read-outs stand apart in the source and are kept apart here. Values belong to the compound of their own block, whether it stands above or below them.

Legend:
recombinant human ERα = molecular target: T1, recombinant human ERα (Homo sapiens, UniProt P03372); assay: ERα binding assay: competition of [3H]E2 binding by competing estrogens; settings: for RBAα % (relative binding affinity for ERα, of E2): calculated against E2 = 100; for RBAα/RBAβ: ratio of relative binding affinities ERα over ERβ
T1 construct: purchased PanVera Corporation (Madison, Wis.); host or cells: baculovirus-mediated expression system
T1 sequence (P03372 1-595): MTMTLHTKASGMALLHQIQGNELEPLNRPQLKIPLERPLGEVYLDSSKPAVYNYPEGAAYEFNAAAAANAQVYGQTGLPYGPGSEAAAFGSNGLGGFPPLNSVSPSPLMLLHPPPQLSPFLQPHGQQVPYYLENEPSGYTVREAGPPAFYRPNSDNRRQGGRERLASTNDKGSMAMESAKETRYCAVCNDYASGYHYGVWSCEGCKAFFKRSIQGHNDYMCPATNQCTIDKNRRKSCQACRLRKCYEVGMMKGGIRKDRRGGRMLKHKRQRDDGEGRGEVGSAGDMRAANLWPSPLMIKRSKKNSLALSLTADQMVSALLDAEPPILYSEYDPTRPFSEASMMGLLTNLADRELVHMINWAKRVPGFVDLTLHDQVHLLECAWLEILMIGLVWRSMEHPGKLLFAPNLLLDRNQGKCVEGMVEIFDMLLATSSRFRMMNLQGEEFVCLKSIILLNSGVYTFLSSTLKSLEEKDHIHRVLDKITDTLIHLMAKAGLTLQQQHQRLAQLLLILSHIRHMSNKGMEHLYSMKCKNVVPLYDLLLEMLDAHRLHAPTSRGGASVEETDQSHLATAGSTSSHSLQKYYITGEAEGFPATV
From the text: (§1) The recombinant human ERα and ERβ proteins and bovine serum albumin (BSA) were obtained from PanVera Corporation (Madison, Wis.). According to the supplier, the recombinant human ERα and ERβ were produced in a baculovirus-mediated expression system, and they were soluble and functionally active, with post-translational modifications similar to those found in mammalian cells. See Reid et al., Human estrogen receptor-α: Regulation by synthesis, modification and degradation, Cell. Mol. Life.
(§2) The following buffer solutions were used in the ER binding assays, and they were prepared beforehand and stored at 4° C. The binding buffer consisted of 10% glycerol, 2 mM dithiothreitol, 1 mg/mL BSA and 10 mM Tris-HCl at pH 7.5. The ERα washing buffer contained 40 mM Tris-HCl and 100 mM KCl (pH 7.4), but the ERG washing buffer contained only 40 mM Tris-HCl (adjusted to pH 7.4). The 50% hydroxylapatite slurry was prepared first by vigorously mixing 10 g hydroxylapatite with 60 mL of the Tris-HCl solution (50 mM, pH 7.4). Hydroxylapatite was then allowed to settle for 20 minutes at room temperature, and the supernatant was decanted. The above procedures were repeated 10 times, and afterwards hydroxylapatite was kept in the 50 mM Tris-HCl solution overnight at 4° C. Hydroxylapatite slurry was then adjusted to an approximate final concentration of 50% (v/v) using the same Tris-HCl solution and stored at 4° C., and the slurry was stable for up to several months.
(§3) Note that all of the estrogens were initially dissolved in pure ethanol to a stock concentration of 1 mM, and then further diluted to 100 μM with 20% aqueous ethanol. […] Immediately before the addition of the ERα or ERβ protein, it was diluted in the binding buffer and mixed gently with repetitive pipettings. […] The incubation mixture was then mixed gently and thoroughly with repetitive pipettings. […] The binding mixture was incubated at room temperature for two hours. At the end of the incubation, 100 μL of the hydroxylapatite slurry was added to each tube and the tubes were incubated on ice for 15 minutes with 3 times of brief vortexing. An aliquot (1 mL) of the appropriate washing buffer was added, mixed, and centrifuged at 10,000 g for five minutes, and the supernatants were discarded. This wash step was repeated twice. Hydroxylapatite pellets were then resuspended in 200 μL ethanol (followed by another rinse with 200 μL ethanol), and then the content was transferred to scintillation vials (containing 4 mL of the scintillation fluid) for measurement of ^3H-radioactivity with a liquid scintillation counter (Packard Tri-CARB 2900 TR; Downers Grove, Ill.).
(§4) To calculate the specific binding (pmol/mL) of the human ERα or ERβ protein at each concentration point, the following equation was used: […]
(§5) When a lower radioligand concentration is used, the corresponding IC50 value will also be relatively lower, but when the radioligand concentration increases, the corresponding IC50 value will also increase. […] Since the RBA value is a parameter that is independent of the radioligand concentration used, we thus have placed more emphasis on the RBA values instead of the absolute IC50 values in interpreting the physiological meanings of the data from in vitro receptor competition assays.

recombinant human ERβ = molecular target: T2, recombinant human ERβ (Homo sapiens, UniProt Q92731); assay: ERβ binding assay: competition of [3H]E2 binding by competing estrogens; settings: for RBAβ (%) (relative binding affinity for ERβ, of E2): calculated against E2 = 100; for binding affinity for ERβ (in words): concentrations up to 1000 nM
T2 construct: purchased PanVera Corporation (Madison, Wis.); host or cells: baculovirus-mediated expression system
T2 sequence (Q92731 whole entry): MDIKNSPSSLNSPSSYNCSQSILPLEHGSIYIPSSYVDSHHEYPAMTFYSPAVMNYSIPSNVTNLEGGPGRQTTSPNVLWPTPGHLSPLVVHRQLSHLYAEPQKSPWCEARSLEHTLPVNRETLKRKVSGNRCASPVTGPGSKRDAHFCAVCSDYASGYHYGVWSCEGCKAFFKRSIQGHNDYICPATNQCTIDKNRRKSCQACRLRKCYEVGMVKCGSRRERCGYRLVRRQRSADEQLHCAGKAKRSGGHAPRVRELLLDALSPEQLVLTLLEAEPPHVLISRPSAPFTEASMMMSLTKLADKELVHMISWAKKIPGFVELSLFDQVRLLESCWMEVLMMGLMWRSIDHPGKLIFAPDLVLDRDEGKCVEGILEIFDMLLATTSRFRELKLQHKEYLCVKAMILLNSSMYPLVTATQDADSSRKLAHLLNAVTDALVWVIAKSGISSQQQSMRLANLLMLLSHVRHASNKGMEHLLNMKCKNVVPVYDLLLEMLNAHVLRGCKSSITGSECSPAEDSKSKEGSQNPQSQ
From the text: as §1, §2, §3, §4, §5

[1] = [3H]E2 10 nM, competitor up to 1000 nM, read-out: ERβ IC50

Structure (SMILES): CC12CCC3c4cc(O)c(O)cc4CCC3C1CCC2=O (stereo not drawn) [2-OH-E1, 2-Hydroxyestrone]
preference of binding affinity for ERα over ERβ (recombinant human ERα; ERα over ERβ): about ten-fold
RBAα % (relative binding affinity for ERα, of E2) (recombinant human ERα): 4%
RBAα/RBAβ (recombinant human ERα): 10
RBAα/RBAβ (recombinant human ERα; listed as 2-hydroxyestrone): about 10
IC50 (recombinant human ERα; read-out: ERα IC50): 0.316 µM
RBAβ (%) (relative binding affinity for ERβ, of E2) (recombinant human ERβ): 0.4%
IC50 (recombinant human ERβ; read-out: ERβ IC50): 2 µM

Structure (SMILES): C[C@]12CC[C@@H]3c4cc(O)c(O)cc4CC[C@H]3[C@@H]1CC[C@@H]2O [2-OH-E2, 2-Hydroxyestradiol]
IC50 (recombinant human ERα): 0.0501 µM
RBAα % (relative binding affinity for ERα, of E2) (recombinant human ERα): 22%
RBAα/RBAβ (recombinant human ERα): 0.6
IC50 (recombinant human ERβ): 0.0251 µM
RBAβ (%) (relative binding affinity for ERβ, of E2) (recombinant human ERβ): 35%

Structure (SMILES): CC(=O)OC1C[C@]2(C)[C@@H](O)CC[C@H]2[C@@H]2CCc3cc(O)ccc3[C@@H]12 (stereo partly drawn) [11-Acetate-E2, 17β-Estradiol 11-acetate]
IC50 (recombinant human ERβ; [1]): 0.0199 µM

preference of binding affinity for ERβ over ERα (recombinant human ERβ; listed as E3): more than five-fold
IC50 (recombinant human ERβ; read-out: ERβ IC50): 0.0251 µM
Structure (SMILES): C[C@]12CC[C@@H]3c4ccc(O)cc4CC[C@H]3[C@@H]1C[C@@H](O)[C@@H]2O [16α-OH-E2 (E3), 16α-Hydroxyestradiol (Estriol), reference compound]

IC50 (recombinant human ERβ; read-out: ERβ IC50): 0.0112 µM
binding affinity for ERβ, times higher than E2-17α (recombinant human ERβ; relative to E2-17α): 16 times
Structure (SMILES): C[C@]12CC[C@@H]3c4ccc(O)cc4CC[C@H]3[C@@H]1C[C@@H](O)[C@H]2O [16α-OH-E2-17α, 16α-Hydroxyestradiol-17α (16,17-Epiestriol)]

preference of binding affinity for ERβ over ERα (recombinant human ERβ): 18 fold
IC50 (recombinant human ERβ; read-out: ERβ IC50): 0.0708 µM
Structure (SMILES): C[C@]12CC[C@@H]3c4ccc(O)cc4CC[C@H]3[C@@H]1C[C@H](O)[C@H]2O [16β-OH-E2-17α, 16β-Hydroxyestradiol-17α (16,17-Epiestriol)]

binding affinity for ERβ (in words) (recombinant human ERβ): only about half of that of E2
Structure (SMILES): C#CC1(O)CCC2C3CCc4cc(O)ccc4C3CCC21C (stereo not drawn) [17α-EE2, 17α-Ethynylestradiol, reference compound]

Structure (SMILES): C[C@]12CCc3c(ccc4cc(O)ccc34)[C@@H]1CC[C@@H]2O [17β-Dihydroequilenin]
IC50 (recombinant human ERβ; [1]): 0.0089 µM

Structure (SMILES): O=C(CC(=O)c1ccccc1)c1ccccc1 [DBM, Dibenzoylmethane, reference compound]
IC50 (recombinant human ERβ): > 1 µM
binding affinity for ERβ (in words) (recombinant human ERβ): weak overall binding affinity

IC50 (recombinant human ERβ; read-out: ERβ IC50): > 1 µM
Structure (SMILES): C[C@]12CC[C@@H]3c4ccc(OS(=O)(=O)O)cc4CC[C@H]3[C@@H]1CCC2=O [E1-3-sulfate, Estrone 3-sulfate]
binding affinity for ERβ (in words) (recombinant human ERβ): basically devoid of appreciable binding affinity
binding affinity for ERβ (in words) (recombinant human ERβ; listed as estrone-3-sulfate): virtually no estrogen receptor binding affinity

Structure (SMILES): C[C@]12CC[C@@H]3c4ccc(O)cc4C[C@@H](CCCCCCOCc4ccccc4)[C@H]3[C@@H]1CC[C@@H]2O [E2-7α-(CH2)6OC6H5, 7α-(6-Benzyloxyhexanyl)-17β-estradiol]
IC50 (recombinant human ERβ; [1]): 0.0631 µM
